# Data reported in PubChem BioAssay AID1259407 (Chemical Carcinogenesis Research Information System (CCRIS), 2018).
# The source made the active and inactive calls. The rule behind the calls is not given here.
# Tested on: CCRIS mutagenicity, Ames/micronucleus/aberration tests
# Assay: CCRIS mutagenicity studies
# [1] = Test System: AMES SALMONELLA TYPHIMURIUM, Strain/Indicator: TA98, Metabolic Activation: NONE, Method: STANDARD PLATE
# [2] = Test System: AMES SALMONELLA TYPHIMURIUM, Strain/Indicator: TA100, Metabolic Activation: NONE, Method: STANDARD PLATE
# [3] = Test System: AMES SALMONELLA TYPHIMURIUM, Strain/Indicator: TA100, Metabolic Activation: RAT, LIVER, S-9, AROCLOR 1254, Method: STANDARD PLATE
# [4] = Test System: AMES SALMONELLA TYPHIMURIUM, Strain/Indicator: TA97, Metabolic Activation: NONE, Method: STANDARD PLATE
# [5] = Test System: AMES SALMONELLA TYPHIMURIUM, Strain/Indicator: TA102, Metabolic Activation: NONE, Method: STANDARD PLATE
smiles,measurement,setting,value
CC(=O)Nc1ccc(S(=O)(=O)O)c2cc(S(=O)(=O)O)c(N=Nc3ccc(N=Nc4ccc(S(=O)(=O)O)cc4)c4ccc(S(=O)(=O)O)cc34)c(O)c12,mutagenic call,"Test System: AMES SALMONELLA TYPHIMURIUM, Strain/Indicator: TA98, Metabolic Activation: HAMSTER, LIVER, S-9, AROCLOR 1254, Method: STANDARD PLATE",inactive; negative
same,mutagenic call,[1],inactive; negative
same,mutagenic call,"Test System: AMES SALMONELLA TYPHIMURIUM, Strain/Indicator: TA98, Metabolic Activation: RAT, LIVER, S-9, AROCLOR 1254, Method: STANDARD PLATE",inactive; negative
same,mutagenic call,"Test System: AMES SALMONELLA TYPHIMURIUM, Strain/Indicator: TA100, Metabolic Activation: HAMSTER, LIVER, S-9, AROCLOR 1254, Method: STANDARD PLATE",inactive; negative
same,mutagenic call,[2],inactive; negative
same,mutagenic call,[3],inactive; negative
same,mutagenic call,"Test System: AMES SALMONELLA TYPHIMURIUM, Strain/Indicator: TA1535, Metabolic Activation: HAMSTER, LIVER, S-9, AROCLOR 1254, Method: STANDARD PLATE",inactive; negative
same,mutagenic call,"Test System: AMES SALMONELLA TYPHIMURIUM, Strain/Indicator: TA1535, Metabolic Activation: NONE, Method: STANDARD PLATE",inactive; negative
same,mutagenic call,"Test System: AMES SALMONELLA TYPHIMURIUM, Strain/Indicator: TA1535, Metabolic Activation: RAT, LIVER, S-9, AROCLOR 1254, Method: STANDARD PLATE",inactive; negative
same,mutagenic call,"Test System: AMES SALMONELLA TYPHIMURIUM, Strain/Indicator: TA1537, Metabolic Activation: HAMSTER, LIVER, S-9, AROCLOR 1254, Method: STANDARD PLATE",inactive; negative
same,mutagenic call,"Test System: AMES SALMONELLA TYPHIMURIUM, Strain/Indicator: TA1537, Metabolic Activation: NONE, Method: STANDARD PLATE",inactive; negative
same,mutagenic call,"Test System: AMES SALMONELLA TYPHIMURIUM, Strain/Indicator: TA1537, Metabolic Activation: RAT, LIVER, S-9, AROCLOR 1254, Method: STANDARD PLATE",inactive; negative
same,mutagenic call,"Test System: MOUSE LYMPHOMA, Strain/Indicator: L5178Y (TK+/TK-), Metabolic Activation: NONE, Method: SUSPENSION/PLATE",inactive; negative. reevaluation of results: negative
same,mutagenic call,"Test System: MOUSE LYMPHOMA, Strain/Indicator: L5178Y (TK+/TK-), Metabolic Activation: RAT, LIVER, S-9, AROCLOR 1254, Method: SUSPENSION/PLATE",active; positive. reevaluation of results: equivocal
CC(=O)CN(CC(C)O)N=O (stereo not drawn),mutagenic call,"Test System: AMES SALMONELLA TYPHIMURIUM, Strain/Indicator: TA100, Metabolic Activation: HAMSTER, LIVER, S-9, 3-METHYLCHOLANTHRENE, Method: PREINCUBATION",active; positive
same,mutagenic call,"Test System: AMES SALMONELLA TYPHIMURIUM, Strain/Indicator: TA100, Metabolic Activation: HAMSTER, LIVER, S-9, PHENOBARBITAL, Method: PREINCUBATION",active; positive
same,mutagenic call,"Test System: AMES SALMONELLA TYPHIMURIUM, Strain/Indicator: TA100, Metabolic Activation: HAMSTER, LIVER, S-9, Method: PREINCUBATION",active; positive
same,mutagenic call,"Test System: AMES SALMONELLA TYPHIMURIUM, Strain/Indicator: TA100, Metabolic Activation: HUMAN, LIVER, S-9, Method: PREINCUBATION",active; positive
same,mutagenic call,"Test System: AMES SALMONELLA TYPHIMURIUM, Strain/Indicator: TA100, Metabolic Activation: MONKEY, LIVER, S-9, Method: PREINCUBATION",active; positive
same,mutagenic call,"Test System: AMES SALMONELLA TYPHIMURIUM, Strain/Indicator: TA100, Metabolic Activation: MOUSE, LIVER, S-9, 3-METHYLCHOLANTHRENE, Method: PREINCUBATION",active; positive
same,mutagenic call,"Test System: AMES SALMONELLA TYPHIMURIUM, Strain/Indicator: TA100, Metabolic Activation: MOUSE, LIVER, S-9, PHENOBARBITAL, Method: PREINCUBATION",active; positive
same,mutagenic call,"Test System: AMES SALMONELLA TYPHIMURIUM, Strain/Indicator: TA100, Metabolic Activation: MOUSE, LIVER, S-9, Method: PREINCUBATION",active; positive
same,mutagenic call,"Test System: AMES SALMONELLA TYPHIMURIUM, Strain/Indicator: TA100, Metabolic Activation: RABBIT, LIVER, S-9, Method: PREINCUBATION",active; positive
same,mutagenic call,"Test System: AMES SALMONELLA TYPHIMURIUM, Strain/Indicator: TA100, Metabolic Activation: RAT, LIVER, CYTOSOL, PCB, Method: PREINCUBATION",active; positive
same,mutagenic call,"Test System: AMES SALMONELLA TYPHIMURIUM, Strain/Indicator: TA100, Metabolic Activation: RAT, LIVER, MICROSOMES AND CYTOSOL, PCB, Method: PREINCUBATION",active; positive
same,mutagenic call,"Test System: AMES SALMONELLA TYPHIMURIUM, Strain/Indicator: TA100, Metabolic Activation: RAT, LIVER, MICROSOMES AND G6PDH, PCB, Method: PREINCUBATION",active; positive
same,mutagenic call,"Test System: AMES SALMONELLA TYPHIMURIUM, Strain/Indicator: TA100, Metabolic Activation: RAT, LIVER, MICROSOMES, PCB, Method: PREINCUBATION",active; positive
same,mutagenic call,"Test System: AMES SALMONELLA TYPHIMURIUM, Strain/Indicator: TA100, Metabolic Activation: RAT, LIVER, S-9 (HEATED), PCB, Method: PREINCUBATION",active; positive
same,mutagenic call,"Test System: AMES SALMONELLA TYPHIMURIUM, Strain/Indicator: TA100, Metabolic Activation: RAT, LIVER, S-9, 3-METHYLCHOLANTHRENE, Method: PREINCUBATION",active; positive
same,mutagenic call,"Test System: AMES SALMONELLA TYPHIMURIUM, Strain/Indicator: TA100, Metabolic Activation: RAT, LIVER, S-9, PCB, Method: PREINCUBATION",active; positive
same,mutagenic call,"Test System: AMES SALMONELLA TYPHIMURIUM, Strain/Indicator: TA100, Metabolic Activation: RAT, LIVER, S-9, PHENOBARBITAL, Method: PREINCUBATION",active; positive
same,mutagenic call,"Test System: AMES SALMONELLA TYPHIMURIUM, Strain/Indicator: TA100, Metabolic Activation: RAT, LIVER, S-9, Method: PREINCUBATION",active; positive
same,mutagenic call,"Test System: AMES SALMONELLA TYPHIMURIUM, Strain/Indicator: TA100, Metabolic Activation: RAT, LIVER, S-9 WITHOUT NADP+, PCB, Method: PREINCUBATION",active; positive
same,mutagenic call,"Test System: AMES SALMONELLA TYPHIMURIUM, Strain/Indicator: TA100, Method: PREINCUBATION",active; positive
same,mutagenic call,"Test System: CHINESE HAMSTER V-79, Strain/Indicator: V-79/OUABAIN, Metabolic Activation: HAMSTER, HEPATOCYTES, Method: CELL-MEDIATED",active; positive
CC(=O)c1cc(C(C)(C)C)cc2c1CCC2(C)C,mutagenic call,[4],inactive; negative
same,mutagenic call,"Test System: AMES SALMONELLA TYPHIMURIUM, Strain/Indicator: TA97, Metabolic Activation: RAT LIVER S-9, AROCLOR 1254, Method: STANDARD PLATE",inactive; negative
same,mutagenic call,[1],inactive; negative
same,mutagenic call,"Test System: AMES SALMONELLA TYPHIMURIUM, Strain/Indicator: TA98, Metabolic Activation: RAT LIVER S-9, AROCLOR 1254, Method: STANDARD PLATE",inactive; negative
same,mutagenic call,[2],inactive; negative
same,mutagenic call,"Test System: AMES SALMONELLA TYPHIMURIUM, Strain/Indicator: TA100, Metabolic Activation: RAT LIVER S-9, AROCLOR 1254, Method: STANDARD PLATE",inactive; negative
same,mutagenic call,[5],inactive; negative
same,mutagenic call,"Test System: AMES SALMONELLA TYPHIMURIUM, Strain/Indicator: TA102, Metabolic Activation: RAT LIVER S-9, AROCLOR 1254, Method: STANDARD PLATE",inactive; negative
CCOC(=O)Cc1c(C(=O)O)c2ccccc2n1C,mutagenic call,[4],inactive; negative
same,mutagenic call,"Test System: AMES SALMONELLA TYPHIMURIUM, Strain/Indicator: TA97, Metabolic Activation: RAT, LIVER, S-9, AROCLOR 1254 (4%, 10%), Method: STANDARD PLATE",inactive; negative
same,mutagenic call,[1],inactive; negative
same,mutagenic call,"Test System: AMES SALMONELLA TYPHIMURIUM, Strain/Indicator: TA98, Metabolic Activation: RAT, LIVER, S-9, AROCLOR 1254 (4%, 10%), Method: STANDARD PLATE",inactive; negative
same,mutagenic call,[2],inactive; negative
same,mutagenic call,"Test System: AMES SALMONELLA TYPHIMURIUM, Strain/Indicator: TA100, Metabolic Activation: RAT, LIVER, S-9, AROCLOR 1254 (4%, 10%), Method: STANDARD PLATE",inactive; negative
same,mutagenic call,[5],inactive; negative
same,mutagenic call,"Test System: AMES SALMONELLA TYPHIMURIUM, Strain/Indicator: TA102, Metabolic Activation: RAT, LIVER, S-9, AROCLOR 1254 (4%, 10%), Method: STANDARD PLATE",inactive; negative
Cc1c2ccc(CO)cc2nc2c1ccc1ccccc12,mutagenic call,[3],active; positive
c1ccc2c(c1)Cc1ccc3ccc4ccccc4c3c1-2,mutagenic call,[3],inactive; negative
